This is an account of results in patent US20060252807A1, “Novel ortho-terphenyl inhibitors of p38 kinase and methods of treating inflammatory disorders” (Kalypsys, Inc., priority 2005, published 2006).

The target in the experiment is T1, active p38 alpha enzyme (Upstate Biotechnology) (Homo sapiens, UniProt Q16539).
T1 construct: purchased Upstate Biotechnology
Nature of the experiment: p38α biochemical assay (ATP turnover, luminescent detection, Cambrex PKlight). Conditions: p38α kinase; Table 1 Biological Activity. A digest of the protocol:
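Luminescent ATP-depletion readout measures total ATP turnover by p38α phosphorylating whole MapkapK2 protein. ATP 1.4 uM final; 30C, 2 h. Compounds delivered from DMSO.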

Each structure is given as a SMILES string.

T1 sequence (Q16539 whole entry): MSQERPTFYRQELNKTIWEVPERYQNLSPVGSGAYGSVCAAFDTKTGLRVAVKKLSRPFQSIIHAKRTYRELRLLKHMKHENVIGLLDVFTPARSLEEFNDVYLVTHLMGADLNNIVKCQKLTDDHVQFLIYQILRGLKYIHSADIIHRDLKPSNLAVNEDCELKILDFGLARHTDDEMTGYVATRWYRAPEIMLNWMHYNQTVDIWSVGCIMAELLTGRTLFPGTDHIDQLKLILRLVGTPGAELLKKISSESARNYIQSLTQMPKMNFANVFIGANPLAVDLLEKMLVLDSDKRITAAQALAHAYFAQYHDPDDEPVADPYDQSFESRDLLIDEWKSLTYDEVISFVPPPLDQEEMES

With `CC(C)NC(=O)c1csc(-c2oc(CNN3CCOCC3)nc2-c2ccc(F)cc2)n1` [Example 1082], the 50% inhibitory concentration (IC50) (commonly the concentration that inhibits the measured activity by half) was over 1000 nM.

For the compound `CC(C)NC(=O)c1csc(-c2oc(CNC(CO)C(C)C)nc2-c2ccc(F)cc2)n1` (centres unmarked) [Example 1083], the IC50 was over 1000 nM.

As for `CC(C)NC(=O)c1csc(-c2oc(CNCc3ccccc3)nc2-c2ccc(F)cc2)n1` [Example 1084], the IC50 was over 1000 nM.

`CC(C)NC(=O)c1csc(-c2oc(CNCc3cccnc3)nc2-c2ccc(F)cc2)n1` [Example 1085] yielded an IC50 of over 1000 nM.

As for `CC(C)NC(=O)c1csc(-c2oc(CNCc3ccccn3)nc2-c2ccc(F)cc2)n1` [Example 1086], the IC50 was at most 1000 nM.

On to `CC(C)NC(=O)c1csc(-c2oc(CNCc3ccncc3)nc2-c2ccc(F)cc2)n1` [Example 1087], for which the IC50 is over 1000 nM.

Compound `CC(C)NC(=O)c1csc(-c2oc(CNCc3cccs3)nc2-c2ccc(F)cc2)n1` [Example 1088] returned a concentration for half-maximal inhibition (IC50) of over 1000 nM.

Compound `CC1CCC(NCc2nc(-c3ccc(F)cc3)c(-c3nc(C(=O)NC(C)C)cs3)o2)CC1` (centres unmarked) [Example 1089] yielded an IC50 of over 1000 nM.

`CC(C)NC(=O)c1csc(-c2oc(CNCC3CCCCC3)nc2-c2ccc(F)cc2)n1` [Example 1090] had an IC50 of over 1000 nM.

In turn, `CC(C)NC(=O)c1csc(-c2oc(CNC3CCCCCC3)nc2-c2ccc(F)cc2)n1` [Example 1091] showed an IC50 of over 1000 nM.

As for `CC(C)NC(=O)c1csc(-c2oc(CNC3CCCCC3C)nc2-c2ccc(F)cc2)n1` (centres unmarked) [Example 1092], the IC50 is over 1000 nM.

The compound `CC(C)NC(=O)c1csc(-c2oc(CNCCN3CCCC3)nc2-c2ccc(F)cc2)n1` [Example 1093] displayed an IC50 of over 1000 nM.

`CC(C)NC(=O)c1csc(-c2oc(CNN3CCN(C)CC3)nc2-c2ccc(F)cc2)n1` [Example 1094] displayed an IC50 of over 1000 nM.

As to `CCN(CC)CCNCc1nc(-c2ccc(F)cc2)c(-c2nc(C(=O)NC(C)C)cs2)o1` [Example 1095], the IC50 is over 1000 nM.

Compound `Cc1cccc(CNCc2nc(-c3ccc(F)cc3)c(-c3nc(C(=O)NC(C)C)cs3)o2)c1` [Example 1096] returned an IC50 of over 1000 nM.

As for `CC(C)NC(=O)c1csc(-c2oc(CN[C@@H](C)c3ccccc3)nc2-c2ccc(F)cc2)n1` [Example 1097], the IC50 was over 1000 nM.

On to `CC(C)NC(=O)c1csc(-c2oc(CN[C@H](C)c3ccccc3)nc2-c2ccc(F)cc2)n1` [Example 1098], for which the IC50 is over 1000 nM.

`CC(C)NC(=O)c1csc(-c2oc(CNCCc3ccccc3)nc2-c2ccc(F)cc2)n1` [Example 1099] gave an IC50 of over 1000 nM.

In the case of `Cc1ccccc1CNCc1nc(-c2ccc(F)cc2)c(-c2nc(C(=O)NC(C)C)cs2)o1` [Example 1100], the IC50 was over 1000 nM.

On to `Cc1ccc(CNCc2nc(-c3ccc(F)cc3)c(-c3nc(C(=O)NC(C)C)cs3)o2)cc1` [Example 1101], for which the IC50 was over 1000 nM.

Consider `Cc1cnc(CNCc2nc(-c3ccc(F)cc3)c(-c3nc(C(=O)NC(C)C)cs3)o2)cn1` [Example 1102], for which the IC50 was over 1000 nM.

`CC(C)NC(=O)c1csc(-c2oc(CNCc3cccc(F)c3)nc2-c2ccc(F)cc2)n1` [Example 1103] showed an IC50 of over 1000 nM.

In turn, `CC(C)NC(=O)c1csc(-c2oc(CNCc3ccc(F)cc3)nc2-c2ccc(F)cc2)n1` [Example 1104] registered an IC50 of over 1000 nM.

Turning to `CC(C)NC(=O)c1csc(-c2oc(CNCc3ccccc3F)nc2-c2ccc(F)cc2)n1` [Example 1105], the IC50 was over 1000 nM.

As for `CC(C)NC(=O)c1csc(-c2oc(CNCCCn3ccnc3)nc2-c2ccc(F)cc2)n1` [Example 1106], the 50% inhibitory concentration (IC50) is over 1000 nM.

Take `CC(C)NC(=O)c1csc(-c2oc(CNCCC3CCCN3C)nc2-c2ccc(F)cc2)n1` (centres unmarked) [Example 1107]: the IC50 was over 1000 nM.

As to `CC(C)NC(=O)c1csc(-c2oc(CNCCN3CCCCC3)nc2-c2ccc(F)cc2)n1` [Example 1108], the IC50 was over 1000 nM.

`CC(C)CCCC(C)NCc1nc(-c2ccc(F)cc2)c(-c2nc(C(=O)NC(C)C)cs2)o1` (centres unmarked) [Example 1109] came in with an IC50 of over 1000 nM.

For the compound `CC(C)NC(=O)c1csc(-c2oc(CNCCN3CCOCC3)nc2-c2ccc(F)cc2)n1` [Example 1110], the IC50 was over 1000 nM.

The compound `CCOC(=O)CC(C)NCc1nc(-c2ccc(F)cc2)c(-c2nc(C(=O)NC(C)C)cs2)o1` (centres unmarked) [Example 1111] displayed an IC50 of over 1000 nM.

In the case of `CC(C)NC(=O)c1csc(-c2oc(CNC3CCc4ccccc43)nc2-c2ccc(F)cc2)n1` (centres unmarked) [Example 1112], the IC50 was over 1000 nM.

`CC1=CCC(CCNCc2nc(-c3ccc(F)cc3)c(-c3nc(C(=O)NC(C)C)cs3)o2)C=C1` (centres unmarked) [Example 1113] showed an IC50 of over 1000 nM.

Regarding `Cc1ccc(C)c(CNCc2nc(-c3ccc(F)cc3)c(-c3nc(C(=O)NC(C)C)cs3)o2)c1` [Example 1114], the IC50 is over 1000 nM.

Take `Cc1ccc([C@H](C)NCc2nc(-c3ccc(F)cc3)c(-c3nc(C(=O)NC(C)C)cs3)o2)cc1` [Example 1115]: the IC50 is over 1000 nM.

The compound `Cc1ccc([C@@H](C)NCc2nc(-c3ccc(F)cc3)c(-c3nc(C(=O)NC(C)C)cs3)o2)cc1` [Example 1116] registered an IC50 of over 1000 nM.

For `CC(C)NC(=O)c1csc(-c2oc(CNCC(C)c3ccccc3)nc2-c2ccc(F)cc2)n1` (centres unmarked) [Example 1117], the IC50 was over 1000 nM.

`CC(C)NC(=O)c1csc(-c2oc(CNCC(C)c3ccccc3)nc2-c2ccc(F)cc2)n1` (centres unmarked) [Example 1118] showed an IC50 of over 1000 nM.

`CC(C)NC(=O)c1csc(-c2oc(CNCCCc3ccccc3)nc2-c2ccc(F)cc2)n1` [Example 1119] displayed an IC50 of over 1000 nM.

The compound `Cc1ccc(CNCc2nc(-c3ccc(F)cc3)c(-c3nc(C(=O)NC(C)C)cs3)o2)cc1C` [Example 1120] gave an IC50 of over 1000 nM.

`CC(C)NC(=O)c1csc(-c2oc(CNC(C)Cc3ccncc3)nc2-c2ccc(F)cc2)n1` (centres unmarked) [Example 1121] returned an IC50 of over 1000 nM.

For the compound `CC(C)NC(=O)c1csc(-c2oc(CNCCc3ccc(O)cc3)nc2-c2ccc(F)cc2)n1` [Example 1122], the IC50 was at most 1000 nM.

Regarding `CC(C)NC(=O)c1csc(-c2oc(CNCCOc3ccccc3)nc2-c2ccc(F)cc2)n1` [Example 1123], the IC50 is over 1000 nM.

With `COc1ccccc1CNCc1nc(-c2ccc(F)cc2)c(-c2nc(C(=O)NC(C)C)cs2)o1` [Example 1124], the IC50 is over 1000 nM.

In turn, `COc1ccc(CNCc2nc(-c3ccc(F)cc3)c(-c3nc(C(=O)NC(C)C)cs3)o2)cc1` [Example 1125] yielded an IC50 of over 1000 nM.

`COc1cccc(CNCc2nc(-c3ccc(F)cc3)c(-c3nc(C(=O)NC(C)C)cs3)o2)c1` [Example 1126] had an IC50 of over 1000 nM.

With `CC(C)NC(=O)c1csc(-c2oc(CNCCc3ccc(F)cc3)nc2-c2ccc(F)cc2)n1` [Example 1127], the IC50 was over 1000 nM.

As for `CC(C)NC(=O)c1csc(-c2oc(CNCCc3ccccc3F)nc2-c2ccc(F)cc2)n1` [Example 1128], the IC50 was over 1000 nM.

Regarding `CC(C)NC(=O)c1csc(-c2oc(CNCCc3cccc(F)c3)nc2-c2ccc(F)cc2)n1` [Example 1129], the IC50 was over 1000 nM.

`CC(C)NC(=O)c1csc(-c2oc(CNCc3cccc(Cl)c3)nc2-c2ccc(F)cc2)n1` [Example 1130]: the IC50 is over 1000 nM.

`CC(C)NC(=O)c1csc(-c2oc(CNCc3ccccc3Cl)nc2-c2ccc(F)cc2)n1` [Example 1131] had an IC50 of over 1000 nM.

Take `CC(C)NC(=O)c1csc(-c2oc(CNCc3ccc(Cl)cc3)nc2-c2ccc(F)cc2)n1` [Example 1132]: the IC50 was over 1000 nM.

Compound `CC(C)NC(=O)c1csc(-c2oc(CNCCCN3CCCC3=O)nc2-c2ccc(F)cc2)n1` [Example 1133] had an IC50 of over 1000 nM.

As to `CC(C)NC(=O)c1csc(-c2oc(CNCc3ccc(F)cc3F)nc2-c2ccc(F)cc2)n1` [Example 1134], the IC50 was over 1000 nM.

In turn, `CC(C)NC(=O)c1csc(-c2oc(CNCc3ccc(F)c(F)c3)nc2-c2ccc(F)cc2)n1` [Example 1135] registered an IC50 of over 1000 nM.

Compound `CC(C)NC(=O)c1csc(-c2oc(CNCc3cc(F)cc(F)c3)nc2-c2ccc(F)cc2)n1` [Example 1136] returned an IC50 of over 1000 nM.

Take `CC(C)NC(=O)c1csc(-c2oc(CNCCCN3CCOCC3)nc2-c2ccc(F)cc2)n1` [Example 1137]: the IC50 was over 1000 nM.

As to `CC(C)NC(=O)c1csc(-c2oc(CNCCN(C(C)C)C(C)C)nc2-c2ccc(F)cc2)n1` [Example 1138], the IC50 is over 1000 nM.

For `CC(C)NC(=O)c1csc(-c2oc(CNC3CCCc4ccccc43)nc2-c2ccc(F)cc2)n1` (centres unmarked) [Example 1139], the IC50 was over 1000 nM.

`CC(C)NC(=O)c1csc(-c2oc(CNC(C)CCc3ccccc3)nc2-c2ccc(F)cc2)n1` (centres unmarked) [Example 1140]: the IC50 was over 1000 nM.

In turn, `CC(C)NC(=O)c1csc(-c2oc(CNCc3ccc(C(C)C)cc3)nc2-c2ccc(F)cc2)n1` [Example 1141] gave an IC50 of over 1000 nM.

`CC(C)NC(=O)c1csc(-c2oc(CNCc3ccc4c(c3)OCO4)nc2-c2ccc(F)cc2)n1` [Example 1142]: the IC50 is over 1000 nM.

Turning to `COc1cccc(CCNCc2nc(-c3ccc(F)cc3)c(-c3nc(C(=O)NC(C)C)cs3)o2)c1` [Example 1143], the IC50 is over 1000 nM.

With `CC(C)NC(=O)c1csc(-c2oc(CN[C@H](CO)Cc3ccccc3)nc2-c2ccc(F)cc2)n1` [Example 1144], the IC50 is over 1000 nM.

Compound `COc1ccc(CCNCc2nc(-c3ccc(F)cc3)c(-c3nc(C(=O)NC(C)C)cs3)o2)cc1` [Example 1145] showed an IC50 of over 1000 nM.

On to `COc1ccccc1CCNCc1nc(-c2ccc(F)cc2)c(-c2nc(C(=O)NC(C)C)cs2)o1` [Example 1146], for which the IC50 was over 1000 nM.

`CCOc1ccccc1CNCc1nc(-c2ccc(F)cc2)c(-c2nc(C(=O)NC(C)C)cs2)o1` [Example 1147] yielded an IC50 of over 1000 nM.

`COc1ccc(NCc2nc(-c3ccc(F)cc3)c(-c3nc(C(=O)NC(C)C)cs3)o2)cc1OC` [Example 1148] showed an IC50 of over 1000 nM.

With `CC(C)NC(=O)c1csc(-c2oc(CNCCc3ccccc3Cl)nc2-c2ccc(F)cc2)n1` [Example 1149], the half-maximal inhibitory concentration (IC50) is over 1000 nM.
